Assay results as given in US10485772B2, “Compositions for modulating cancer stem cells and uses therefor” (University of Canberra, priority 2014, dated 2019).
“Also recorded” adds a separate entry of the source.

Assays:
Assay type in all cases: cell-based, human
[1] = test system: MCF-7 cells (mammospheres); experiment: Mammosphere assay in MCF-IM model; settings: NCD38 5 μM for 17 hr prior to PMA for 6 days, mammospheres larger than 60 μm counted
Procedure: The following mammosphere culture media components were purchased from StemCell Technologies Inc., BC, Canada: Mammocult Basal medium (Human) (catalogue number-05621), Mammocult Proliferation Supplements (Human) (catalogue number-05622), heparin (catalogue number-07904) and hydrocortisone (catalogue number-[…]). Hydrocortisone powder was freshly dissolved into mammocult basal medium to get 10^−4M solution on the day of experiment. 50 mL of
Mammocult complete media was then prepared by addition of 45 mL Mammocult basal medium, 5 mL mammocult proliferation supplements, 100 μL of the 0.2% heparin stock, 500 μL of 10^−4M stock of hydrocortisone and 50 μL of the PNS. Mammocult complete media was either used on same day or stored for not more than 7 days at 4° C.
MCF-7 cells were grown in a 175 cm^2 cell culture flask and harvested using a cell scraper (Zellschaber, Switzerland) or FACS sorted as specified below. Importantly trypsin treatment was never used for harvesting cells as it interferes with the mammosphere assay. Harvested cells were then re-suspended in 1 mL mammocult complete media and centrifuged at 500×g for 3 minutes at 20° C. The cell pellet was then re-suspended in 1 mL mammocult complete media before counting the cells on the Vi-CELL counter. Cell dilutions were then prepared to stain 40,000 cells/2 mL and 2 mL of cells were seeded in the 6 well-ultra low adherent, flat bottom plates (Costar, Corning Inc, Corning, N.Y., USA). Cells were either stimulated or not treated according to the experimental protocol and incubated at 37° C., under 5% CO2 for 7 days in a Hepa-Filtered Infrared (IR) Incubator (Forma Scientific Inc., Materietta, Ohio). Mammospheres larger than 60 μm were counted per well on day 7 and pictures were taken with an Olympus microscope. All the mammosphere assays were performed in duplicate wells and the entire procedure was repeated at least twice.
Mammosphere culture media components were purchased from StemCell Technologies and mammosphere assays were performed as recommended by the manufacturer's guidelines. Briefly, 40,000 cells/2 ml cell dilutions were then prepared and 2 ml of cells were seeded in the 6 well-ultralow adherent, flat bottom plates (Costar). Mammospheres larger than 60 μm were counted per well on day 7 and pictures were taken.

[2] = test system: MDA-MB 231 cells; experiment: Phase contrast microscopy of EMT/MET in Basal/metastatic model; settings: NCD38 5 μM
Procedure: (§1) Phase contrast microscopy was utilized for EMT and wound healing assays under 10× or 20× magnification of Olympus Fluorescence 1X71 microscope. Images were captured and analyzed as described above except that wound healing assay pictures were also analyzed by Image J software (Free software in Public domain developed by NIH).
(§2) The adherent human mammary adenocarcinoma MCF-7 and MDA-MB-231 cells were cultured in low glucose DMEM (Gibco) and both supplemented with 10% FCS, 2 mM L-glutamine and 0.1% PSN antibiotics. Cells were stimulated with 0.65 ng/ml of phorbol 12-myristate 13-acetate (PMA) (Sigma-Aldrich) or 20 ng/ml of TGF-β (R&D systems) for the times indicated. For Bisindolylmaleimide-I (Calbiochem) or PKC-θ peptide inhibitor (Calbiochem) studies, cells were pre-treated with 1 μM or 30 μM of inhibitor respectively for 1 h prior to stimulation in MCF-7 cells. In case of MDA-MB-231, cells were treated with 4 μM or 30 μM Bisindolylmaleimide-I or PKC-θ peptide inhibitor respectively.
(§3) phase contrast microscopy was performed where cells were viewed at ×4 magnification (wound healing assay) or ×10 magnification (EMT) using an Olympus fluorescence IX71 microscope (Olympus) and images were captured using DPController software (2002 Olympus Optical Co. LTD) and analyzed using Photoshop CS3 (Adobe Systems Inc.). Scans were taken with a 10 μm scale bar.

[3] = test system: CD44^high/CD24^low CSC-like subpopulation of PMA-stimulated MCF-7 cells (MCF-IM model); experiment: FACS analysis of CD44high/CD24low CSC-like subpopulation in MCF-IM model; settings: for CD44 high CD24 low-CSC-like subpopulation (CSC formation) by FACS: NCD38 5 μM for 17 hr prior to PMA stimulation for 60 hours
Procedure: (§4) Cells from each well/flask were harvested by means of trypsin treatment followed by two washes with PBS. Washed cells then re-suspended in an antibody cocktail consisting anti-CD44-APC, anti-CD24-PE antibodies (details in Table 5) and Hoechst 33258 dye (final dilution of 1:1000) (Invitrogen, Carlsbad, Calif.) in 1% FCS-PBS solution. Cells re-suspended in antibody cocktail were incubated for 20 minutes at 4° C. Cells were next washed twice with PBS and re-suspended in 1% FCS-PBS solution (volume based on cell number) and kept on ice until analyzed by FACS. Forward scatter (FSC) and side scatter parameters were selected with FITC fluorochrome excited by 488 nm argonion laser, PE fluorochrome excited by 488 nm and Hoechst fluorochrome excited by 350 nm helium-cadmium UV laser.
(§5) Flow Cytometry data was produced using either BD FACS LSR Flow Cytometer (Becton Dickinson Biosciences) or BD FACS Aria™ II Flow Cytometer (Becton Dickinson Biosciences) and analyzed using the data acquisition software CellQuest Pro (Becton Dickinson Biosciences) and FlowJo (Tree Star Inc., Ashland, Oreg.) software at the MCRF facility, JCSMR, ANU, Canberra, Australia. Single colour controls were used to set compensation parameters. Isotype controls were used for all corresponding primary antibodies in each experiment.
The FACS gating strategy used in this thesis is adopted and modified from the pioneer breast cancer stem cell publications (Al-Hajj et al., 2003) which sorted cells based on the CD44^high and CD24^low expression. […] To confirm that anti-CD44-APC and anti-CD24-PE antibodies were specific, isotype control antibodies were used. The isotype (negative controls) used for anti-CD24-PE was PE Mouse-Anti-human IgG2aK and for anti-CD44-APC was APC-Mouse-Anti-human IgG2bK. First, all the cells were stained with Hoechst 33258 to monitor cell viability. In addition cells were stained with varying concentrations of either APC or PE isotypes controls.
as §2
(§6) To separate CSC from non-CSC (NCSC), florescence activated cell sorting (FACS) was performed on single-cell suspensions that were stained with anti-CD44-APC (559942, BD Biosciences) and anti-CD24-PE antibodies (555428, BD Biosciences) along with Hoechst 33258 to monitor cell viability. As used throughout this work, CSC are defined by minority CD44^high/CD24^low, whereas NCSC are defined by rest of the cell populations.
The adherent human mammary adenocarcinoma cell lines MCF-7 were cultured in low glucose DMEM (Gibco) and supplemented with 10% FCS, 2 mM L-glutamine, and 0.1% PSN antibiotics. Cells were stimulated with 0.65 ng/ml of phorbol 12-myristate 13-acetate (PMA) (Sigma-Aldrich) for 60 hours. FACS was performed on single-cell suspensions stained with anti-CD44-APC (559942, BD Biosciences) and anti-CD24-PE antibodies (555428, BD Biosciences), along with Hoechst 33258 (561908, BD Biosciences) to monitor cell viability as previously detailed (Zafar et al., Chromatinized PKC-theta directly regulates inducible genes in epithelial to mesenchymal transition and breast cancer stem cells. Molecular and Cellular Biology, 2014, 34:16 2961-2980). […]

[4] = test system: MDA-MB 231 cells; experiment: FACS analysis of CD44high/CD24low CSC-like subpopulation in Basal/metastatic model; settings: NCD38 5 μM
Procedure: as §4, §5, §2, §6

[5] = test system: MCF-7 cells; experiment: EMT assay by phase contrast microscopy in MCF-IM model; settings: MCF-7 cells; PMA 20 ng/mL for 60 hr, compared with TNF-α, EGF, IL-6, TGF-β
Procedure: EMT assays were performed in 24-well plates (Costar, Corning Inc., Corning, N.Y., USA). For this assay, usually MCF-7 cells were seeded at 4×10^4/well/500 μL media one day before the experiment unless otherwise specified. Cells were stimulated with various EMT stimuli prepared in warm media the following day and monitored for EMT changes under the microscope specified below. The percentage of EMT was generally calculated based on phenotype counting 100 cells per field under the microscope. All the potential EMT stimuli used herein are described in Table 6 and they were prepared and stored as per supplier specification.
as §1
as §2, with “Cells were stimulated with 0.65 ng/ml of phorbol 12-myristate 13-acetate (PMA) (Sigma-Aldrich) or 20 ng/ml of TGF-β (R&D systems) for the times indicated.” left out
as §3

O=C(N[C@@H](CCNC1CC1c1ccccc1)C(=O)NCc1cccc(Cl)c1)c1ccc(-c2ccccc2)cc1 (some centres unmarked) [NCD-38]
mammosphere formation [1]: inhibition CSC formation
mammosphere formation ([1]; listed as NCD38): reduce mammosphere formation
EMT / conversion of mesenchymal cells to epithelial cells (MET), phase contrast morphology [2]: conversion of mesenchymal cells in to epithelial cells
EMT / conversion of mesenchymal cells to epithelial cells (MET), phase contrast morphology ([2]; listed as NCD38): inhibit EMT
inhibition at 2.5 µM ([3]; Homo sapiens, MCF7, MCF-IM model, NCD-38 alone at 2.5 μM): ~50%
inhibition at 5 µM ([3]; Homo sapiens, MCF7, MCF-IM model, NCD-38 alone at 5 μM): ~60%
CD44 high CD24 low-CSC-like subpopulation (CSC formation) by FACS ([3]; MCF-IM model): inhibition CSC formation
CD44 high CD24 low-CSC-like subpopulation (CSC formation) by FACS ([3]; MCF-IM model, listed as NCD38): inhibits CD44 high CD24 low-CSC-like subpopulation
CD44 high CD24 low-CSC-like subpopulation (CSC formation) by FACS [4]: decrease of CSC formation
CD44 high CD24 low-CSC-like subpopulation (CSC formation) by FACS ([4]; listed as NCD38): inhibits CD44 high CD24 low-CSC-like subpopulation

CC(C)[C@@](C)(O)[C@@H]1CN(c2nc(-c3n[nH]c4ncccc34)c(F)cc2Cl)CCN1 [Compound C27]
inhibition at 0.1 µM ([3]; Homo sapiens, MCF7, MCF-IM model, C27 alone at 100 nM): ~30%
inhibition at 0.5 µM ([3]; Homo sapiens, MCF7, MCF-IM model, C27 alone at 500 nM): ~90%

CCCCCCCCCCCCCC(=O)O[C@@H]1[C@@H](C)[C@@]2(O)[C@@H](C=C(CO)C[C@]3(O)C(=O)C(C)=C[C@@H]23)[C@@H]2C(C)(C)[C@]12OC(C)=O [PMA, Phorbol 12-Myristate 13-Acetate]
EMT (percentage of the cells undergoing EMT, morphological changes) [5]: results in maximal EMT; also recorded: caused highest EMT changes
generation of CD44high/CD24low CSC-like cells by FACS ([3]; MCF-7 cells stimulated with PMA 0.65 ng/mL for 60 hr): generation of CD44^high/CD24^low-CSC like cells
